The record followed here is a melting point compilation (Tetko et al.).

As to `Cc1c(Br)ccc(S(N)(=O)=O)c1C`, the melting point lay within 195 to 197 °C.
On to `Cc1cc(C(=O)CCl)c(C)n1-c1ccc(F)c(Cl)c1`, for which the melting point lay within 115 to 117 °C.
`O=C(O)c1sccc1S(=O)(=O)N1CCC(CO)CC1`: the melting point is 143 to 145 °C.
Molecule `N#Cc1cc(C(=O)C(Cl)(Cl)Cl)c[nH]1` returned a melting point of 129 to 131 °C.
`c1ccc2[nH]c(C3CCNCC3)cc2c1` showed a melting point of 192 to 194 °C.
With `Cn1ccnc1SCc1ccccc1[N+](=O)[O-]` the figure was 86 to 88 °C; with `Cc1nc(Cl)c2c(n1)CCCC2`, 30 to 32 °C; with `N#Cc1ccc(N2CCOCC2)nc1`, 123 to 125 °C.
For the molecule `Cc1cnc(NC(=O)c2ccc(Br)o2)s1`, the melting point is 190 to 192 °C.
To `Sc1nnnn1-c1cccc(Cl)c1` belongs 148 to 150 °C.
`CC(=O)c1c(C)[nH]c(C(=O)C(C)Cl)c1C` (configuration not stated) displayed a melting point of 152 to 154 °C.
To `CCc1ccc(-c2nn[nH]n2)cc1` belongs 237 to 239 °C; to `O=C(O)Cn1nnc(-c2ccccc2)n1`, 180 to 182 °C; to `CCOC(=O)c1cnc2c(cnn2C)c1Cl`, 83 to 85 °C.
Consider `O=C(O)CCc1nnc(-c2ccsc2)o1`, for which the melting point fell in the range of 159 to 161 °C.
Molecule `Nc1cnn(-c2ccc(C(F)(F)F)cc2)c1` had a melting point of 159 to 161 °C.
To `O=C(NC(C(=O)O)c1ccccc1)OCC1c2ccccc2-c2ccccc21` (configuration not stated) belongs 170 to 172 °C.
With `COc1ccccc1-c1nn(C)cc1C(=O)O` the figure was 203 to 205 °C.
With `O=C(O)c1noc(-c2ccc(F)cc2)n1` the figure was 129 to 131 °C; with `CCOC(=O)c1c(CCCO)cnc2c(C#N)cnn12`, 94 to 96 °C; with `O=C(O)C1CC1c1ccc(OC(F)(F)F)cc1` (configuration not stated), 96 to 98 °C.
`O=S(=O)(Cl)Cc1c(Cl)cccc1Cl` came in with a melting point of 70 to 72 °C.
Take `O=C(NO)c1c(F)cccc1Cl`: the melting point lay within 149 to 151 °C.
To `COCCn1c(N)c(NCc2ccccc2)c(=O)[nH]c1=O` belongs 151 to 153 °C.
In the case of `O=C(O)c1ccccc1NCc1ccccc1Cl`, the melting point is 183 to 185 °C.
In turn, `N#Cc1c[nH]c2ccc(Cl)cc2c1=O` returned a melting point of 381 to 383 °C.
To `O=C(O)CCn1cc[nH]c(=O)c1=O` belongs 239 to 241 °C; to `NS(=O)(=O)C1CN(C(=O)OCc2ccccc2)C1`, 103 to 105 °C; to `O=C(O)C1=COCCC1`, 71 to 73 °C.
With `O=C(c1cc(Cl)c[nH]1)C(Cl)(Cl)Cl` the figure was 128 to 130 °C; with `Clc1nc2cccnc2nc1Cl`, 143 to 145 °C.
`CC(C)NS(=O)(=O)c1ccc(F)c(C(=O)O)c1` had a melting point of 167 to 169 °C.
With `Nc1ccc(CN2CCN(c3ccccn3)CC2)cc1` the figure was 101 to 103 °C; with `O=C(O)CSc1ccccc1F`, 80 to 82 °C; with `O=S(=O)(Cl)c1cnn(C2CCOCC2)c1`, 59 to 61 °C.
With `O=C(CC(=O)C(F)F)c1ccco1` the figure was 39 to 41 °C; with `O=S(=O)(Cl)c1ncn[nH]1`, 58 to 60 °C; with `Nc1ccc(NC(=O)c2ccccc2)nc1`, 139 to 141 °C.
To `Nc1nnc(-c2ccncc2)o1` belongs 239 to 241 °C.
The molecule `NC(=O)CNc1ccc(C(=O)O)cc1` registered a melting point of 249 to 251 °C.
With `NS(=O)(=O)c1cc(F)ccc1Br` the figure was 170 to 172 °C; with `O=S(=O)(Cl)c1ccc2nc(Cl)sc2c1`, 98 to 100 °C; with `Cn1cc(C(=O)c2cccc(F)c2)cn1`, 103 to 105 °C.
With `COC(=O)c1ccc(N)c(F)c1` the figure was 111 to 113 °C; with `CCCCC1CCC(C(=O)CC#N)CC1` (configuration not stated), 52 to 54 °C; with `O=C(O)CCC(NC(=O)c1ccccc1)C(=O)O` (configuration not stated), 133 to 135 °C.
As to `Nc1cccc(CN2CCSCC2)c1`, the melting point was in the range of 87 to 89 °C.
With `O=C(O)Cc1ccc(Cl)cc1Br` the figure was 126 to 128 °C; with `O=Cc1c(Cl)cccc1OC(F)F`, 37 to 39 °C; with `Nc1ccnn1Cc1cccc2ccccc12`, 136 to 140 °C.
With `CC(O)c1nc2ccc(Cl)cc2n1C` (configuration not stated) the figure was 149 to 151 °C; with `Nc1ccc(-c2cc[nH]n2)cc1`, 99 to 101 °C.
To `CC(=O)c1cnn(-c2ccc(F)cc2)c1C` belongs 87 to 89 °C; to `CC1(COS(C)(=O)=O)COC1`, 32 to 34 °C; to `Cc1nc(NN)c2c3c(sc2n1)CCC3`, 182 to 184 °C.
As for `O=C(O)c1cc(N=Nc2ccc(S(=O)(=O)Nc3ccccn3)cc2)ccc1O`, the melting point was in the range of 260 to 265 °C.
With `O=C(O)CSCc1ccc(Cl)s1` the figure was 66 to 68 °C; with `O=C(O)C1CCCN1S(=O)(=O)c1ccccc1` (configuration not stated), 79 to 81 °C.
In the case of `Cc1nc(-c2ccc(F)c(F)c2)sc1C(=O)O`, the melting point fell in the range of 209 to 211 °C.
To `Cc1ccc(C(=O)O)cc1S(=O)(=O)NCC#N` belongs 212 to 214 °C.
Molecule `Nc1cccc(CS(=O)C2CCOCC2)c1` (configuration not stated) displayed a melting point of 125 to 127 °C.
To `CN(Cc1cnn(C)c1)C(=O)CCl` belongs 35 to 37 °C; to `O=C(O)c1cnc(-c2ccccc2Cl)s1`, 200 to 202 °C; to `NC(=O)c1ccnc(F)c1`, 175 to 177 °C.
To `Cc1nnc(S)n1N` belongs 186 to 188 °C.
To `O=C(O)CSCc1ccccn1` belongs 136 to 138 °C; to `CC(=O)CSc1ccccc1[N+](=O)[O-]`, 74 to 76 °C; to `CC(C)(C)OC(=O)NC1CC(O)C1` (configuration not stated), 108 to 110 °C.
`CC1(c2ccc3c(c2)OCCCO3)NC(=O)NC1=O` (configuration not stated) gave a melting point of 192 to 194 °C.
To `Cc1nc2sccn2c1C(N)=S` belongs 232 to 234 °C.
With `COc1ccc(-c2csc(N)n2)cc1Br` the figure was 188 to 190 °C.
With `Nc1nnc(-c2ccsc2)s1` the figure was 211 to 213 °C; with `CC(C)C1(C(=O)O)CC1`, 54 to 56 °C; with `Cc1ccc(N)c2cccnc12`, 144 to 146 °C.
Take `CC(=CC(=O)O)c1ccccc1F`: the melting point lay in the range of 101 to 103 °C.
`O=C(O)COc1ccc(C(=O)c2ccccc2Cl)cc1` displayed a melting point of 141 to 143 °C.
With `CCc1ccc(OCc2nnc(S)n2C(C)c2ccccc2)cc1` (configuration not stated) the figure was 143 to 145 °C; with `Nc1ccnc(Oc2ccccc2)c1`, 52 to 54 °C.
`O=C(O)c1ccc(-n2cccn2)c(F)c1` registered a melting point of 235 to 237 °C.
Consider `Cc1ccc(NC(=O)NC(=O)CCl)cc1C`, for which the melting point is 144 to 146 °C.
Turning to `O=C(O)CONS(=O)(=O)c1ccc(F)cc1`, the melting point lay in the range of 168 to 170 °C.
With `CC(C)(C)CNC(=O)c1ccc(C(=O)O)cn1` the figure was 239 to 241 °C; with `NS(=O)(=O)c1ccc(CNC(=O)OCC(F)(F)F)cc1`, 150 to 152 °C; with `N#CC(C(=O)N1CCCCC1)c1ccc(C(F)(F)F)cn1` (configuration not stated), 137 to 139 °C.
To `OCCCc1nc2ncccn2n1` belongs 76 to 78 °C; to `NC(=NO)c1ccc([N+](=O)[O-])cc1`, 187 to 189 °C.
As to `CC(Cl)C(=O)N(c1nccs1)C1CCCCC1` (configuration not stated), the melting point was 82 to 84 °C.

The term melting point denotes the temperature, or range, at which the solid turns liquid.
